In ChEMBL document CHEMBL4715815, “Design, synthesis and biological evaluation of 7H-pyrrolo[2,3-d]pyrimidin-4-amine derivatives as selective Btk inhibitors with improved pharmacokinetic properties for the treatment of rheumatoid arthritis” (Eur J Med Chem, 2018):
Converted amounts (≈) assume the structure as drawn. The source made the active and inactive calls. No cut-off for these calls is given here.

Legend:
[1] = Aqueous solubility of compound at 1 mg; settings: aqueous medium
HEK293 = assay: Cytotoxicity against human HEK293 cells assessed as reduction in cell viability incubated for 72 hrs by MTT assay; assay type: ADME, cell-based; settings: HEK293, 72 h
THP-1 = assay: Cytotoxicity against human THP-1 cells assessed as reduction in cell viability incubated for 72 hrs by MTT assay; assay type: ADME, cell-based; settings: THP-1, 72 h
L02 = assay: Cytotoxicity against human L02 cells assessed as reduction in cell viability incubated for 72 hrs by MTT assay; assay type: ADME, cell-based; settings: L02, 72 h
[2] = biological target: Tyrosine-protein kinase BTK (Homo sapiens, UniProt Q06187); assay: Inhibition of BTK (unknown origin) by caliper mobility shift assay
Sequence of Tyrosine-protein kinase BTK (Q06187 whole entry): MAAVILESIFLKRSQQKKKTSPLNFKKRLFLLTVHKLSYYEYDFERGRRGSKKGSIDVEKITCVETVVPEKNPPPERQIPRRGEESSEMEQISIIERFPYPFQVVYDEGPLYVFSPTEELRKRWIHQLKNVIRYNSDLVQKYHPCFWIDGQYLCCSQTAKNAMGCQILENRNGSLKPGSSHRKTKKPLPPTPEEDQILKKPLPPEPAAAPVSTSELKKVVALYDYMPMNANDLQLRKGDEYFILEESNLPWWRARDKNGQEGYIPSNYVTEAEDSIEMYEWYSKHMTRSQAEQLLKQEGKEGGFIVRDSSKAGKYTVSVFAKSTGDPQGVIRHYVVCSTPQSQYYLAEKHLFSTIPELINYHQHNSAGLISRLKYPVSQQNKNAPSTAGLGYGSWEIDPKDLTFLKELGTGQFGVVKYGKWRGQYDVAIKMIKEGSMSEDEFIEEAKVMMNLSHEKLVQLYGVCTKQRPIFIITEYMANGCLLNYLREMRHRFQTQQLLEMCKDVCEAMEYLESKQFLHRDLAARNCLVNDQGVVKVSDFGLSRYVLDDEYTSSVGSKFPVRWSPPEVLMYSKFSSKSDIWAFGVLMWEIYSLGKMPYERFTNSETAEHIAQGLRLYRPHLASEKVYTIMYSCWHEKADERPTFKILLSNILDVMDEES

Mus musculus = assay: Antiarthritic activity in DBA/1J mouse model of collagen-induced arthritis at 20 mg/kg, po administered for 30 days and measured on day 30; assay type: functional, organism-based; settings: time 30.0 day
[3] = Inhibition of recombinant human PI3K using PIP2 as substrate incubate for 15 mins by LANCE assay

Compound	solubility [1] [µg/mL]	IC50 (HEK293) [µM]	IC50 (THP-1) [µM]	IC50 (L02) [µM]	IC50 [2] [µM]	Activity (Mus musculus)	IC50 [3] [µM]
C=CC(=O)N1CCC(Cn2nc(-c3ccc4c(c3)OCO4)c3c(N)ncnc32)CC1	100 (≈ 246 µM)	–	–	–	–	–	–
C=CC(=O)N1CCCC(Cn2cc(-c3ccc4c(c3)OCO4)c3c(N)ncnc32)C1 (single isomer, unassigned; form 2)	100 (≈ 247 µM)	–	–	–	–	–	–
C=CS(=O)(=O)N1CCC(Cn2cc(-c3ccc(Oc4ccccc4)cc3)c3c(N)ncnc32)CC1	< 10	2.7	3.3	3.2	–	–	–
C=CS(=O)(=O)N1CCC(Cn2cc(-c3ccc4c(c3)OCO4)c3c(N)ncnc32)CC1	100 (≈ 226 µM)	2.5	3.7	3.2	–	–	–
C=CS(=O)(=O)N1CCC(Cn2nc(-c3ccc4c(c3)OCO4)c3c(N)ncnc32)CC1	100 (≈ 226 µM)	2.8	14.4	10.1	–	–	–
C=CC(=O)N1CCC(Cn2nc(-c3ccc(Oc4ccccc4)cc3)c3c(N)ncnc32)CC1	< 10	11.2	15.7	10.9	–	–	–
C=CC(=O)N1CCCC(Cn2cc(-c3ccc4c(c3)OCO4)c3c(N)ncnc32)C1 (single isomer, unassigned; form 1)	100 (≈ 247 µM)	–	–	–	–	–	–
C=CC(=O)N1CCC(CCn2cc(-c3ccc4c(c3)OCO4)c3c(N)ncnc32)CC1	< 100	–	–	–	–	–	–
C=CC(=O)N1CCC(Cn2cc(-c3ccc(Oc4ccccc4)cc3)c3c(N)ncnc32)CC1	< 10	13.3	16.7	16	0.00609	–	–
C=CC(=O)N1CCC[C@@H](n2nc(-c3ccc(Oc4ccccc4)cc3)c3c(N)ncnc32)C1 [IBRUTINIB]	< 10	19.3	20.1	17.4	–	Active	> 10
CN(C)C/C=C/C(=O)N1CCC(Cn2cc(-c3ccc4c(c3)OCO4)c3c(N)ncnc32)CC1	< 100	–	–	–	–	–	–
C=CC(=O)N1CCC(Cn2cc(-c3ccc(OCc4ccccc4)cc3)c3c(N)ncnc32)CC1	< 10	–	–	–	0.077	–	–
C=CC(=O)N1CCC(CCn2cc(-c3ccc(Oc4ccccc4)cc3)c3c(N)ncnc32)CC1	< 10	10.2	18.9	15.2	–	–	–
C=CC(=O)N1CCCC(Cn2cc(-c3ccc(Oc4ccccc4)cc3)c3c(N)ncnc32)C1 (single isomer, unassigned; form 1)	< 10	2.9	8.8	11.7	–	–	–
C=CC(=O)N1CCCC(Cn2cc(-c3ccc(Oc4ccccc4)cc3)c3c(N)ncnc32)C1 (single isomer, unassigned; form 2)	< 10	1.3	10.7	14.2	–	–	–
C=CS(=O)(=O)N1CCC(Cn2nc(-c3ccc(Oc4ccccc4)cc3)c3c(N)ncnc32)CC1	< 10	1.6	18.3	19.1	–	–	–
CN(C)C/C=C/C(=O)N1CCC(Cn2cc(-c3ccc(Oc4ccccc4)cc3)c3c(N)ncnc32)CC1	< 10	4.8	3.2	6.6	–	–	–
